Measured values reported in patent US6384030B1, “Water soluble azoles as broad-spectrum antifungals” (priority 1998, dated 2002).
Converted amounts (≈) assume the structure as drawn.

Tests used:
[1] = Saksena et al., Bioorganic & Medicinal Chemistry Letters (1995), 5(2), 127-132; cited from earlier work
Candida spp. [2] = assay: Fungal susceptibility, Panel 1 (example C1); type: cell-based; details: Panel 1: 8 isolates of Candida spp. incl. an azole-resistant C. albicans strain; CYG broth; 37° C. for 48 hours; growth below 35% of control; read-out: geometric mean minimum inhibitory concentration-value (MIC)
[3] = system: other fungi (3 dermatophyte isolates, Aspergillus migatus, Cryptococcus neoformans, Sporothrix schenckii); assay: Fungal susceptibility, Panel 2 (example C1); type: cell-based; details: Panel 2: 6 other fungi (3 dermatophytes, Aspergillus, Cryptococcus neoformans, Sporothrix schenckii); CYG broth; growth below 35% of control
Candida spp. [4] = assay: Minimum fungicidal concentration (example C2); type: cell-based; details: 24 Candida isolates; RPMI 1640 buffered with MOPS, 2% glucose; subculture on Sabouraud glucose agar; read-out: Geometric mean minimum fungicidal concentrations
Procedure: (§1) A panel of 24 Candida isolates, 8 isolates of Aspergillus spp., 8 dermatophytes, 10 Zygomycetes, 10 Fusarium spp., 2 Cryptococcus neoformans and 8 dematiaceous hyphomycetes was used.
(§2) Inocula were prepared as in example C1 but the culture medium used in this test was RPMI 1640 buffered with MOPS, with 2% glucose (Odds, F. C., Antimicrobial Agents and Chemotherapy, 1995, 39, 2051-2060). Test compounds were added to the medium from DMSO solutions to give final concentrations in the series 10, 3.2, 1.0, 0.32, 0.10, 0.032, 0.010,0.0032 and 0.0010 μM. Incubation times and temperatures were as in example C1. Once the microdilution plates had been read for growth turbidity spectrophotometrically, samples of material were removed from the test cultures to inoculate 10 μl volumes on plates of Sabouraud glucose agar. The plates were incubated at 37° C. for 48 hours for yeasts or at other times and temperatures for other species. Geometric mean minimum fungicidal concentrations in μM which were determined as the lowest concentrations of the test compound that completely or substantially eliminated reappearance of fungal growth on the Sabouraud plates

Fusarium spp. = assay: Minimum fungicidal concentration (example C2); type: cell-based; details: 10 Fusarium spp.; RPMI 1640 buffered with MOPS, 2% glucose; subculture on Sabouraud glucose agar; read-out: Geometric mean minimum fungicidal concentrations
Procedure: as §1, §2

Zygomycetes = assay: Minimum fungicidal concentration (example C2); type: cell-based; details: 10 Zygomycetes; RPMI 1640 buffered with MOPS, 2% glucose; subculture on Sabouraud glucose agar; read-out: Geometric mean minimum fungicidal concentrations
Procedure: as §1, §2

[5] = Water solubility (example D1); type: physicochemical; details: aqueous buffer, thermodynamic from solid; water buffered with 0.1 M citric acid and 0.2 M Na2HPO4 (pH =4); shaken 1 day at room temperature; UV

| SMILES | activity as antifungal compared to SCH 51048 [1] | MIC (Candida spp. [2]) [µM] | MIC [3] [µM] | MFC (Candida spp. [4]) [µM] | MFC (Fusarium spp.) [µM] | MFC (Zygomycetes) [µM] | solubility at 1 day [5] [µg/mL] |
| --- | --- | --- | --- | --- | --- | --- | --- |
| CN(C)CCn1ncn(-c2ccc(N3CCN(c4ccc(OC[C@@H]5CO[C@@](Cn6cncn6)(c6ccc(F)cc6F)C5)cc4)CC3)cc2)c1=O (relative stereo) [(3R-cis)-4-[4-[4-[4-[[5-(2,4-difluorophenyl)tetrahydro-5-(1H-1,2,4-triazol-1-ylmethyl)-3-furanyl]methoxy]phenyl]-1-piperazinyl]phenyl]-2-[2-(dimethylamino)ethyl]-2,4-dihydro-3H-1,2,4-triazol-3-one] | profoundly less active |  |  |  |  |  |  |
| C[C@@H](N[C@H](C)[C@H](C)n1ncn(-c2ccc(N3CCN(c4ccc(OC[C@@H]5CO[C@@](Cn6cncn6)(c6ccc(F)cc6F)O5)cc4)CC3)cc2)c1=O)c1ccccc1 (relative stereo) [Compound 86, [2S-[2α,4α[(R*,S*)(S*)]]]-4-[4-[4-[4-[[2-(2,4-difluoropheny)-2-(1H-1,2,4-triazol-1-yl-methyl)-1,3-dioxolan-4-yl]methoxy]phenyl]-1-piperazinyl]phenyl]-2,4-dihydro-2-[2-[(1-phenylethyl)amino]-1-methylpropyl]-3H-1,2,4-triazol-3-one] |  | 0.01 to 1 (≈ 0.00792 to 0.792 µg/mL) | 0.01 to 1 (≈ 0.00792 to 0.792 µg/mL) | 1 to 10 (≈ 0.792 to 7.92 µg/mL) | 1 to 10 (≈ 0.792 to 7.92 µg/mL) | 1 to 10 (≈ 0.792 to 7.92 µg/mL) | > 100 |
